# Test results as given in patent US20110142866A1, “PEPTIDE ANALOGUES AND CONJUGATES THEREOF” (Eldrug S.A., priority 2007, published 2011).
# “Also recorded” adds a separate entry of the source.
# What was measured:
# [1] = test system: IL-10 secretion by T cells; test: IL-10 ELISpot of spleen cells from immunized mice; format: in vivo, SJL/J mice; parameters: key to IL-10: −: negative; +/−: very weak; +: weak; ++: moderate; +++: strong; conditions: for IL-10: Table 2, peptide analogues conjugated to reduced mannan-KLH; for IL-10 production by T cells (in words): peptide conjugated to reduced mannan, two injections
# Experimental: Female 6-8 week old SJL/J mice used in all experiments, were purchased from Walter and Eliza Hall Institute (VIC Australia) and housed at the Biological Research Laboratory at Burnet Institute at Austin, Heidelberg, Australia. SJL/J mice were immunized twice on days 0, 14 intradermally (base of tail) with 50 μg MBP83-99 peptide analogue-KLH-reduced mannan.
# ELISpot analyses specific T cell responses to antigens by detecting the secretion of specific cytokines. Spleen cells from immunized SJL/J mice were isolated 14 days after immunization and assessed by ELISpot for IFN-γ, IL-4 or IL-10 secretion by T cells. IFN-γ ELISpot assay was performed on MultiScreen-IP Filter Plate (MAIP S4510) with hydrophobic PVDF filters (Millipore, UK) while IL-4 and IL-10 ELISpot was performed on MultiScreen-HA Filter Plate (MAHA S4510) with mixed cellulose esters filters (Millipore, UK). MAIP S4510 plates were pre-wet with 50 μl of 70% ethanol, washed 5 times with 200 μl sterile PBS and coated with 70 μl of 5 μg/ml anti-IFN-γ capture antibody, AN18 (Mabtech, Australia) in PBS and left to incubate at 4° C. O/N. While 70 μl of 5 μg/ml anti-IL-4 and anti-IL-10 capture antibody (Mabtech, Australia) was added directly to MAHA S4510 plates and incubated at 4° C. O/N without 70% ethanol treatment. Following 5 washes with PBS, plates were blocked by adding 200 μl of culture media (supplemented with 2.5% FCS) and incubated for 2 hours at 37° C. The blocking media was discarded and 10 μg/ml recall peptides (MBP83-99 peptide analogues not conjugated to KLH-reduced mannan) were added into each defined well. Con A (1.0 μg/ml; IL-4 and IFN-γ) or LPS (1.0 μg/ml; IL-10) were used as an internal positive controls and no peptide was used as negative control. Triplicate wells were set up for each condition. 5×10^5 spleen cells in 100 μl culture media were seeded into each well and incubated for 18 hours for IFN-γ, 24 hours for IL-4 and 48 hours for IL-10 at 37° C. Plates were washed 5 times PBS/0.05% Tween 20 and 5 times PBS and incubated for 2 hours at RT with anti-murine IFN-γ, IL-4 or IL-10 monoclonal antibody-biotin. Plates were washed and streptavidin-ALP was added at 1.0 μg/ml and incubated for 2.0 hours at RT. Spots of activity were detected using a colorimetric AP kit (Biorad, Hercules, Calif. USA) and counted using an AID ELISpot plate reader (Autoimmun Diagnostika GmbH, Germany). Data are presented as mean spot forming units (sfu) per 0.5×10^6 cells +/−standard error of the mean (SEM).
# MOG35-55 induced EAE [2] = test: Chronic MOG35-55 EAE, clinical evaluation; format: in vivo, C57BL/6 mice; conditions: for overall clinical effect on MOG35-55 EAE: co-injection at disease induction at 1:1 ratio
# MOG35-55 induced EAE [3] = test: MOG35-55 EAE, spinal cord histopathology; format: in vivo, C57BL/6 mice
# Experimental: On day 17 (acute phase of EAE) and day 46 post-EAE-induction (chronic phase of EAE) animals were subjected to transcardial perfusion with 4% paraformaldehyde in PBS. Brains and spinal cords were removed, post-fixed in the same fixative for approximately 20 hours, routinely processed for paraffin embedding and sectioned at […]. Sections from animals of acute and chronic phases of the disease, were then stained using the following methods: a) a modified Bielschowsky silver impregnation staining method combined with haematoxylin, for the simultaneous evaluation of axonal injury, axonal loss and inflammatory processes in EAE as previously described in detail [Lourbopoulos et, al., 2007]; b) Luxol fast blue staining counterstained with Nuclear fast Red for the detection of demyelinating areas within the CNS of animals, using routine histopathological protocols. Pathological evaluation was performed under a light microscope (Olympus Axioplan-2) by two blinded investigators and photos were taken using a CCD camera (Nikon). Five randomly selected longitudinal sections per tissue (brains and spinal cords) were evaluated as follows: for each animal, each section was evaluated under 20× or 40× optical fields (depending on the object of study) so as to cover the entire area of the section. […] Depending on the object of interest the following scales were used to perform the evaluation: (a) For axonal injury (AI), the following scale was used: 0=no AI, 1+=scattered dystrophic injured axons without any spheroid or ovoid, 2+=mild AI with the presence of at least one spheroid or ovoid, 3+=moderate AI, 4+=severe AI; generally injured axons were defined and identified as spheroids and ovoids (which represent axonotmesis), and dilated (dystrophic) axons which represent injured axons not yet being cut. (b) For axonal loss (AL): 0=normal axonal density, 1+=<25% AL, 2+=mild AL (26-50%), 3+=moderate to severe (51-75%) AL, 4+=severe AL (>75%); various degrees of decreased density of axons was attributed to axonal loss and evaluated accordingly. (c) For infiltrations: number of infiltrating cells per optical field and number of infiltrating cells per infiltration. (d) Demyelination was evaluated under 40× optical fields; using a prefrontal grid, we measured the area of demyelination and the total area of white matter in each optical field and then subtracted the % of demyelination present in each optical field.
# Stability to proteolysis = format: in vitro ADME; conditions: compared to linear counterparts
compound,measurement,setting,value
E N P V V H F F F N I V T P R T P (ENPVVHFFFNIVTPRTP) [[F^91]MBP83-99],IL-10,[1],++
same,IL-10 production by T cells (in words),[1],moderate levels; also recorded: induced
E N P V V H F F Y N I V T P R T P (ENPVVHFFYNIVTPRTP) [[Y^91]MBP83-99],IL-10,[1],++
same,IL-10 production by T cells (in words),[1],moderate levels
"CC[C@H](C)[C@@H]1NC(=O)[C@H](CC(N)=O)NC(=O)[C@H](CCCCN)NC(=O)[C@H](Cc2ccccc2)NC(=O)[C@H](Cc2ccccc2)NC(=O)[C@H](Cc2c[nH]cn2)NC(=O)[C@H](C(C)C)NC(=O)[C@H](C(C)C)NC(=O)[C@@H]2CCCN2C(=O)[C@H](CC(N)=O)NC(=O)[C@H](CCC(=O)O)NC(=O)[C@@H]2CCCN2C(=O)[C@H]([C@@H](C)O)NC(=O)[C@H](CCCNC(=N)N)NC(=O)[C@@H]2CCCN2C(=O)[C@H]([C@@H](C)O)NC(=O)[C@H](C(C)C)NC1=O [cyclo(83-99)MBP83-99, cyclo(83-99)E N P V V H F F K N I V T P R T P]",mean day of disease onset,MOG35-55 induced EAE [2]; acute phase experiment,12.00±0.81
same,mean clinical score vs control,"MOG35-55 induced EAE [2]; acute phase, days 15, 16 and 17",statistical significant different
same,mean Areas Under the Curve (mAUC),"MOG35-55 induced EAE [2]; acute phase, sacrifice day 17, 300 μg co-injected 1:1 with MOG35-55",13.32±2.55
same,mean day of disease onset,MOG35-55 induced EAE [2]; chronic phase experiment,17.00±11.74
same,Mean Maximal Clinical Scores (MMS),"MOG35-55 induced EAE [2]; chronic phase, day 46",2.375±1.45
same,mean Areas Under the Curve (mAUC),"MOG35-55 induced EAE [2]; chronic phase, day 46",51.08±36.58
same,mean clinical score vs control,"MOG35-55 induced EAE [2]; chronic phase, entire observation period",lower mean clinical score
same,overall clinical effect on MOG35-55 EAE,MOG35-55 induced EAE [2],mild beneficial effect
same,overall clinical effect on MOG35-55 EAE,MOG35-55 induced EAE [2]; listed as cyclic MBP83-99,mild preventive benefit
same,demyelination of the white matter of spinal cords,MOG35-55 induced EAE [3]; acute phase,9.58±10.5%
same,effect on axonal injury vs control,MOG35-55 induced EAE [3]; acute phase,mild but statistical significant beneficial effect
same,effect on axonal loss vs control,MOG35-55 induced EAE [3]; acute phase,mild effect
same,infiltrating cells per optical field,MOG35-55 induced EAE [3]; acute phase,290.8±277.7
same,inflammatory cells per infiltration,MOG35-55 induced EAE [3]; acute phase,53.72±62.0
same,"axonal injury per 20x field, % within GROUP","MOG35-55 induced EAE [3]; acute phase, score 0",14.3%
same,"axonal loss per 20x field, % within GROUP","MOG35-55 induced EAE [3]; acute phase, score 0",16.5%
same,"axonal injury per 20x field, % within GROUP","MOG35-55 induced EAE [3]; acute phase, score 1+",45.1%
same,"axonal loss per 20x field, % within GROUP","MOG35-55 induced EAE [3]; acute phase, score 1+",36.1%
same,"axonal injury per 20x field, % within GROUP","MOG35-55 induced EAE [3]; acute phase, score 2+",22.3%
same,"axonal loss per 20x field, % within GROUP","MOG35-55 induced EAE [3]; acute phase, score 2+",31.6%
same,"axonal injury per 20x field, % within GROUP","MOG35-55 induced EAE [3]; acute phase, score 3+",11.3%
same,"axonal loss per 20x field, % within GROUP","MOG35-55 induced EAE [3]; acute phase, score 3+",12.0%
same,"axonal injury per 20x field, % within GROUP","MOG35-55 induced EAE [3]; acute phase, score 4+",6.0%
same,"axonal loss per 20x field, % within GROUP","MOG35-55 induced EAE [3]; acute phase, score 4+",3.8%
same,axonal injury vs control,MOG35-55 induced EAE [3]; chronic phase,not different
same,axonal loss vs control,MOG35-55 induced EAE [3]; chronic phase,less
same,demyelination of the white matter of spinal cords,MOG35-55 induced EAE [3]; chronic phase,7.65±11.4%
same,infiltrating cells per optical field,MOG35-55 induced EAE [3]; chronic phase,10.71±39.0
same,inflammatory cells per infiltration,MOG35-55 induced EAE [3]; chronic phase,6.0±15.8
same,"axonal injury per 20x field, % within GROUP","MOG35-55 induced EAE [3]; chronic phase, score 0",49.3%
same,"axonal loss per 20x field, % within GROUP","MOG35-55 induced EAE [3]; chronic phase, score 0",51.4%
same,"axonal injury per 20x field, % within GROUP","MOG35-55 induced EAE [3]; chronic phase, score 1+",29.0%
same,"axonal loss per 20x field, % within GROUP","MOG35-55 induced EAE [3]; chronic phase, score 1+",26.8%
same,"axonal injury per 20x field, % within GROUP","MOG35-55 induced EAE [3]; chronic phase, score 2+",13.0%
same,"axonal loss per 20x field, % within GROUP","MOG35-55 induced EAE [3]; chronic phase, score 2+",10.9%
same,"axonal injury per 20x field, % within GROUP","MOG35-55 induced EAE [3]; chronic phase, score 3+",8.0%
same,"axonal loss per 20x field, % within GROUP","MOG35-55 induced EAE [3]; chronic phase, score 3+",10.1%
same,"axonal injury per 20x field, % within GROUP","MOG35-55 induced EAE [3]; chronic phase, score 4+",0.7%
same,"axonal loss per 20x field, % within GROUP","MOG35-55 induced EAE [3]; chronic phase, score 4+",0.7%
same,stability to the proteolysis,Stability to proteolysis,increases stability to the proteolysis
